Experimental data as given in US20250144067A1, “PERSONALIZED STARVATION THERAPY FOR CANCER” (Faeth Therapeutics, Inc., priority 2021, published 2025).
Structures can show the parent of a compound that is named as a salt. Where two headings read alike, the source gives them in different places.

Assays:
[1] = test system: NCI-H292 lung cancer cells; experiment: FDA drug screening, complete media vs cholesterol-free media without statin (TABLE 1); type: cell-based, human
[2] = test system: NCI-H292 lung cancer cells; experiment: FDA drug screening, complete media vs cholesterol-free media with simvastatin (TABLE 2); type: cell-based, human
[3] = Complete minus Cholesterol-free, greater than 0 enhanced anti-cancer activity, about 0 neutral, below 0 antagonists
[4] = NCI-H292 cells in cholesterol-free media without statin
[5] = NCI-H292 cells in complete media
[6] = NCI-H292 cells, FDA library drug in cholesterol-free media with simvastatin 0.04 μM
[7] = NCI-H292 cells, FDA library drug in complete media
[8] = complete media vs cholesterol-free media + simvastatin (0.04 μM), >0 enhanced anti-cancer activity, about 0 neutral, <0 antagonist
[9] = Complete minus Cholesterol-free, greater than 0 enhanced anti-cancer activity, about 0 neutral, below 0 antagonist
[10] = NCI-H292 cells, FDA drug library screen, cholesterol-free media without statin
[11] = NCI-H292 cells, FDA drug library screen, complete media
[12] = NCI-H292 cells, cholesterol-free media with simvastatin 0.04 μM, cell growth value in FDA drug screen
[13] = NCI-H292 cells, complete media, cell growth value in FDA drug screen
[14] = complete media minus cholesterol-free media + simvastatin, >0 enhanced anti-cancer activity, about 0 neutral, <0 antagonist
[15] = NCI-H292 cells, cholesterol-free media without statin, FDA drug library screen
[16] = complete vs cholesterol-free media, >0 enhanced anti-cancer activity, about 0 neutral, <0 antagonist
[17] = NCI-H292 cells, drug in cholesterol-free media with simvastatin 0.04 μM
[18] = NCI-H292 cells, drug in complete media
[19] = NCI-H292 cells, cholesterol-free media with simvastatin 0.04 μM, FDA drug library screen (TABLE 2)
[20] = NCI-H292 cells, complete media, FDA drug library screen (TABLE 2)
[21] = complete media minus cholesterol-free media + simvastatin (0.04 μM), >0 enhanced anti-cancer activity, about 0 neutral, <0 antagonist
[22] = Complete minus Cholesterol-free, >0 enhanced anti-cancer activity, about 0 neutral, <0 antagonist
[23] = NCI-H292 cells, complete media, FDA drug library screen
[24] = NCI-H292 cells, FDA drug library screen, cholesterol-free media with simvastatin 0.04 μM
[25] = NCI-H292 cells, cholesterol-free media without statin
[26] = complete vs cholesterol-free media, […]

COc1c2occc2cc2ccc(=O)oc12 [Methoxsalen]
Difference [1, 3]: −0.72 | Cholesterol-free [1, 4]: 1.514 | Complete [1, 5]: 0.7902 | Cholesterol-free media + simvastatin (0.04 μM) [2, 6]: 1.34 | Complete Media [2, 7]: 0.9575 | Difference [2, 8]: −0.38

Cc1cc(C2CCCCC2)n(O)c(=O)c1 [Ciclopirox (olamine)]
Difference [1, 9]: −0.13 | Cholesterol-free [1, 10]: 0.3971 | Complete [1, 11]: 0.2691 | Cholesterol-free media + simvastatin (0.04 μM) [2, 12]: 0.5971 | Complete Media [2, 13]: 0.715 | Difference [2, 14]: 0.12

O=C1c2ccccc2C(=O)C1c1ccccc1 [Phenindione]
Cholesterol-free [1, 15]: 0.7484 | Difference [1, 16]: 0.40 | Cholesterol-free media + simvastatin (0.04 μM) [2, 17]: 1.567 | Complete Media [2, 18]: 1.395 | Difference [2, 8]: −0.17

Phentolamine (mesylate)
Difference [1, 3]: −0.51 | Cholesterol-free [1, 4]: 1.404 | Complete [1, 5]: 0.8982 | Cholesterol-free media + simvastatin (0.04 μM) [2, 19]: 0.9072 | Complete Media [2, 20]: 0.8992 | Difference [2, 21]: −0.01

C[C@H]1C[C@H]2[C@@H]3CCC4=CC(=O)C=C[C@]4(C)[C@@]3(F)[C@@H](O)C[C@]2(C)[C@@]1(O)C(=O)CO [Betamethasone]
Difference [1, 22]: −0.03 | Cholesterol-free [1, 15]: 0.6463 | Complete [1, 23]: 0.6113 | Cholesterol-free media + simvastatin (0.04 μM) [2, 24]: 1.093 | Complete Media [2, 11]: 0.9456 | Difference [2, 8]: −0.15

Atracurium (besylate)
Difference [1, 3]: −0.49 | Cholesterol-free [1, 4]: 1.419 | Complete [1, 5]: 0.9276 | Cholesterol-free media + simvastatin (0.04 μM) [2, 17]: 1.369 | Difference [2, 8]: −0.26

Nc1nc(Cl)nc2c1ncn2[C@@H]1O[C@H](CO)[C@@H](O)[C@@H]1F [Clofarabine]
Cholesterol-free [1, 25]: 0.802 | Complete ([1]; NCI-H292 cells, complete media): 0.4474 | Difference ([1]; complete vs cholesterol-free media, greater than 0 enhanced anti-cancer activity, about 0 neutral, below 0 antagonists): −0.35 | Cholesterol-free media + simvastatin (0.04 μM) [2, 19]: 0.03305 | Complete Media [2, 20]: 0.03609 | Difference [2, 21]: 0.00

Tocofersolan
Cholesterol-free [1, 25]: 0.7811 | Complete ([1]; NCI-H292 cells, complete media): 0.4609 | Difference [1, 26]: −0.32 | Cholesterol-free media + simvastatin (0.04 μM) [2, 24]: 0.3462 | Complete Media [2, 11]: 0.6285 | Difference ([2]; complete media minus cholesterol-free media + simvastatin, […]): 0.28

Nc1ccc(/N=N/c2ccccc2)c(N)n1 [Phenazopyridine (hydrochloride)]
Difference [1, 22]: −0.06 | Cholesterol-free [1, 15]: 1.194 | Complete [1, 23]: 1.131 | Cholesterol-free media + simvastatin (0.04 μM) [2, 24]: 1.284 | Complete Media [2, 11]: 1.801 | Difference [2, 14]: 0.52

Nc1ccn([C@@H]2O[C@H](CO)[C@@H](O)C2(F)F)c(=O)n1 [Gemcitabine (hydrochloride)]
Difference [1, 22]: −0.04 | Cholesterol-free [1, 15]: 0.05262 | Complete [1, 23]: 0.01403 | Cholesterol-free media + simvastatin (0.04 μM) [2, 19]: 0.04392 | Complete Media [2, 20]: 0.02306 | Difference [2, 21]: −0.02

CC[C@H]1OC(=O)[C@H](C)[C@@H](O[C@H]2C[C@@](C)(OC)[C@@H](O)[C@H](C)O2)[C@H](C)[C@@H](O[C@@H]2O[C@H](C)C[C@H](N(C)C)[C@H]2O)[C@](C)(O)C[C@@H](C)C(=O)[C@H](C)[C@H]2OC(=O)O[C@@]21C [Davercin]
Cholesterol-free [1, 15]: 0.5403 | Complete [1, 23]: 0.9622 | Difference [1, 26]: 0.42 | Cholesterol-free media + simvastatin (0.04 μM) [2, 24]: 1.064 | Complete Media [2, 11]: 0.9657 | Difference ([2]; complete media vs cholesterol-free media + simvastatin (0.04 μM), […]): −0.10

COC(=O)N[C@H](C(=O)N1CCC[C@H]1c1nc(-c2ccc3c(c2)O[C@@H](c2ccccc2)n2c-3cc3cc(-c4c[nH]c([C@@H]5CCCN5C(=O)[C@@H](NC(=O)OC)C(C)C)n4)ccc32)c[nH]1)C(C)C [Elbasvir]
Difference [1, 3]: −0.70 | Cholesterol-free [1, 4]: 1.334 | Complete [1, 5]: 0.6346 | Cholesterol-free media + simvastatin (0.04 μM) [2, 19]: 0.9746 | Complete Media [2, 20]: 0.9378 | Difference [2, 21]: −0.04

CO[C@@H]1[C@@H](OC(N)=O)[C@@H](O)[C@H](Oc2ccc3c(O)c(NC(=O)c4ccc(O)c(CC=C(C)C)c4)c(=O)oc3c2C)OC1(C)C [Novobiocin (Sodium)]
Difference [1, 9]: −0.12 | Cholesterol-free [1, 10]: 1.193 | Complete [1, 11]: 1.072 | Cholesterol-free media + simvastatin (0.04 μM) [2, 24]: 1.139 | Complete Media [2, 11]: 1.056 | Difference [2, 8]: −0.08

CN1CCCC(n2nc(Cc3ccc(Cl)cc3)c3ccccc3c2=O)CC1 (stereo not shown) [Azelastine (hydrochloride)]
Cholesterol-free [1, 15]: 0.9594 | Complete [1, 23]: 1.039 | Difference [1, 16]: 0.08 | Cholesterol-free media + simvastatin (0.04 μM) [2, 17]: 1.092 | Complete Media [2, 18]: 0.8741 | Difference [2, 8]: −0.22

C/C(=C\c1csc(C)n1)[C@@H]1C[C@@H]2O[C@]2(C)CCC[C@H](C)[C@H](O)[C@@H](C)C(=O)C(C)(C)[C@@H](O)CC(=O)N1 [Ixabepilone]
Difference [1, 22]: −0.01 | Cholesterol-free [1, 15]: 0.1019 | Complete [1, 23]: 0.09155 | Cholesterol-free media + simvastatin (0.04 μM) [2, 19]: 0.1261 | Complete Media [2, 20]: 0.1336 | Difference [2, 21]: 0.01

COc1cc2c(c(OC)c1OC)-c1ccc(OC)c(=O)cc1[C@@H](NC(C)=O)CC2 [Colchicine]
Cholesterol-free [1]: 0.1135 | Complete [1]: 0.07073 | Difference [1]: −0.04 | Cholesterol-free media + simvastatin (0.04 μM) [2]: 0.1971 | Complete Media [2]: 0.2205 | Difference [2]: 0.02

O=S(=O)(O)c1cc(O)ccc1O [Ethamsylate]
Difference [1, 3]: −0.53 | Cholesterol-free [1, 4]: 1.652 | Complete [1, 5]: 1.118 | Cholesterol-free media + simvastatin (0.04 μM) [2, 24]: 1.397 | Complete Media [2, 11]: 1.245 | Difference [2, 8]: −0.15

CNC(=O)c1ccc(N2C(=S)N(c3ccc(C#N)c(C(F)(F)F)c3)C(=O)C2(C)C)cc1F [Enzalutamide]
Cholesterol-free [1, 15]: 0.885 | Complete [1, 23]: 1.326 | Difference [1, 16]: 0.44 | Cholesterol-free media + simvastatin (0.04 μM) [2, 6]: 0.7893 | Complete Media [2, 7]: 0.3116 | Difference [2, 8]: −0.48

Cc1ccsc1C(=CCCN1CCC[C@@H](C(=O)O)C1)c1sccc1C [Tiagabine (hydrochloride)]
Difference [1, 22]: −0.25 | Cholesterol-free [1, 25]: 1.406 | Complete ([1]; NCI-H292 cells, complete media): 1.159 | Cholesterol-free media + simvastatin (0.04 μM) [2, 12]: 0.8465 | Complete Media [2, 13]: 0.9752 | Difference [2, 14]: 0.13

Nc1ncn([C@H]2C[C@H](O)[C@@H](CO)O2)c(=O)n1 [Decitabine]
Difference [1, 22]: −0.25 | Cholesterol-free [1, 25]: 0.8074 | Complete ([1]; NCI-H292 cells, complete media): 0.559 | Cholesterol-free media + simvastatin (0.04 μM) [2, 12]: 0.7335 | Complete Media [2, 13]: 0.7733 | Difference [2, 14]: 0.04

CN(C)CC/C=C1/c2ccccc2COc2ccc(CC(=O)O)cc21 [Olopatadine (hydrochloride)]
Difference [1, 9]: −0.13 | Cholesterol-free [1, 10]: 1.018 | Complete [1, 11]: 0.8917 | Cholesterol-free media + simvastatin (0.04 μM) [2, 24]: 0.9644 | Complete Media [2, 11]: 0.8474 | Difference [2, 8]: −0.12

CC(C)(C#N)c1cc(Cn2cncn2)cc(C(C)(C)C#N)c1 [Anastrozole]
Difference [1, 22]: −0.28 | Cholesterol-free [1, 25]: 1.263 | Complete ([1]; NCI-H292 cells, complete media): 0.9847 | Cholesterol-free media + simvastatin (0.04 μM) [2, 19]: 1.07 | Complete Media [2, 20]: 1.045 | Difference [2, 21]: −0.02

Butoconazole (nitrate)
Difference [1, 9]: −0.19 | Cholesterol-free [1, 10]: 0.9845 | Complete [1, 11]: 0.7977 | Cholesterol-free media + simvastatin (0.04 μM) [2, 24]: 0.1838 | Complete Media [2, 11]: 0.9232 | Difference [2, 14]: 0.74
